Assay results taken from ChEMBL document CHEMBL5236590, “Discovery of Novel N-(5-(Pyridin-3-yl)-1H-indazol-3-yl)benzamide Derivatives as Potent Cyclin-Dependent Kinase 7 Inhibitors for the Treatment of Autosomal Dominant Polycystic Kidney Disease” (J Med Chem, 2022).
The source made the active and inactive calls. The calls are words filed in the database; no cut-off is given here.

What was measured:
[1] = target: Cyclin-dependent kinase 7 (Homo sapiens, UniProt P50613); assay: Inhibition of CDK7 (unknown origin) assessed as phosphorylation of ULight 4EBP1 peptide substrate measured after 2 hrs by FRET-based LANCE Ultra KinSelect assay
[2] = target: Cyclin-dependent kinase 2 (Homo sapiens, UniProt P24941); assay: Inhibition of CDK2 (unknown origin) assessed as phosphorylation of ULight 4EBP1 peptide substrate measured after 2 hrs by FRET-based LANCE Ultra KinSelect assay
[3] = target: Cyclin-dependent kinase 3 (Homo sapiens, UniProt Q00526); assay: Inhibition of CDK3 (unknown origin)
[4] = target: Mitogen-activated protein kinase kinase kinase 7 (Homo sapiens) (UniProt O43318); assay: Inhibition of human partial length TAK1 (M1/Q303) expressed in mammalian system at 1 uM by KINOMEscan analysis relative to control
[5] = target: Tyrosine-protein kinase JAK2 (Homo sapiens) (UniProt O60674); assay: Inhibition of human partial length wild type JAK2 (A829/G1132) expressed in mammalian system at 1 uM by KINOMEscan analysis relative to control
[6] = target: Vascular endothelial growth factor receptor 2 (Homo sapiens) (UniProt P35968); assay: Inhibition of human partial length wild type KDR (R787/P1253) expressed in mammalian system at 1 uM by KINOMEscan analysis relative to control
[7] = target: Tyrosine-protein kinase ABL1 (Homo sapiens) (UniProt P00519); assay: Inhibition of human partial length Ab1 (S229/K512) expressed in mammalian system at 1 uM by KINOMEscan analysis relative to control
[8] = target: ALK tyrosine kinase receptor (Homo sapiens) (UniProt Q9UM73); assay: Inhibition of human partial length ALK (I1088/E1409) expressed in mammalian system at 1 uM by KINOMEscan analysis relative to control
[9] = target: Casein kinase II subunit alpha' (Homo sapiens) (UniProt P19784); assay: Inhibition of human full length wild type CK2alpha2 expressed in mammalian system at 1 uM by KINOMEscan analysis relative to control
[10] = target: Eukaryotic elongation factor 2 kinase (Homo sapiens) (UniProt O00418); assay: Inhibition of human recombinant eEF-2K at 1 uM by radiometric assay relative to control
[11] = system: Epidermal growth factor receptor (Homo sapiens), P00533 [UNDEFINED MUTATION]; assay: Inhibition of human partial length EGFR (R669/V1011) G719C mutant expressed in bacterial system at 1 uM by KINOMEscan analysis relative to control
[12] = target: Insulin-like growth factor 1 receptor (Homo sapiens) (UniProt P08069); assay: Inhibition of human partial length wild type IGF-1R (L972/D1294) expressed in bacterial system at 1 uM by KINOMEscan analysis relative to control
[13] = target: Inhibitor of nuclear factor kappa-B kinase subunit alpha (Homo sapiens) (UniProt O15111); assay: Inhibition of human full length wild type IKKalpha expressed in mammalian system at 1 uM by KINOMEscan analysis relative to control
[14] = target: Serine/threonine-protein kinase 10 (Homo sapiens) (UniProt O94804); assay: Inhibition of human partial length wild type LOK (E16/V314) expressed in bacterial system at 1 uM by KINOMEscan analysis relative to control
[15] = target: Tyrosine-protein kinase Lyn (Homo sapiens) (UniProt P07948); assay: Inhibition of human partial length wild type Lyn (C219/Q511) expressed in bacterial system at 1 uM by KINOMEscan analysis relative to control
Tyrosine-protein kinase Lyn (Homo sapiens), sequence (P07948 2-512 limits assumed): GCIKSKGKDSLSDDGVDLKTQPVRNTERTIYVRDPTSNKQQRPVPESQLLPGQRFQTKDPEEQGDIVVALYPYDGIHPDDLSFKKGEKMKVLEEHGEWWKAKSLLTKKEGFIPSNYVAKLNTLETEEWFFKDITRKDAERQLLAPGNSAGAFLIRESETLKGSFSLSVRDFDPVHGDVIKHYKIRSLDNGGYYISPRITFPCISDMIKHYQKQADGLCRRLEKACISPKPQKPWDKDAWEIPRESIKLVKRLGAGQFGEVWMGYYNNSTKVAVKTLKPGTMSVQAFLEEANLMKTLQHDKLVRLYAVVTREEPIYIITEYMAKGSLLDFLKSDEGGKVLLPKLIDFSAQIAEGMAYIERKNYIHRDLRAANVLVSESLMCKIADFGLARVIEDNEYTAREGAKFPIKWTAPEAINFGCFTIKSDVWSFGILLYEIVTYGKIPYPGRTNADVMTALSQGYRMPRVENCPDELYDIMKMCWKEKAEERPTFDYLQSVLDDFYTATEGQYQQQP

[16] = target: MAP kinase-activated protein kinase 2 (Homo sapiens) (UniProt P49137); assay: Inhibition of human partial length wild type MAPKAP-K2 expressed in bacterial system at 1 uM by KINOMEscan analysis relative to control
MAP kinase-activated protein kinase 2 (Homo sapiens), sequence (P49137 whole entry, looked up): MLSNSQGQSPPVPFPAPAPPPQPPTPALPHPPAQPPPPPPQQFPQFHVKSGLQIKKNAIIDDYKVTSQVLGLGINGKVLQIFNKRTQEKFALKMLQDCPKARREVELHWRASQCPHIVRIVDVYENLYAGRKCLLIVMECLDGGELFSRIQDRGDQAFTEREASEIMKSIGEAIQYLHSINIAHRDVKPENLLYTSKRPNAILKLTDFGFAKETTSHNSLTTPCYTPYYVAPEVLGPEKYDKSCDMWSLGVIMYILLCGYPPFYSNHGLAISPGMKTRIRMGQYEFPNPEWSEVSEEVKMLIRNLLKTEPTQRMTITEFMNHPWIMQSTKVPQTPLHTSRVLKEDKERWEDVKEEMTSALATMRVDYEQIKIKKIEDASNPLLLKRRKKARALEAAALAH

[17] = target: Mitogen-activated protein kinase kinase kinase 9 (Homo sapiens) (UniProt P80192); assay: Inhibition of human partial length wild type MLK1 expressed in bacterial system at 1 uM by KINOMEscan analysis relative to control
Mitogen-activated protein kinase kinase kinase 9 (Homo sapiens), sequence (P80192 whole entry, looked up): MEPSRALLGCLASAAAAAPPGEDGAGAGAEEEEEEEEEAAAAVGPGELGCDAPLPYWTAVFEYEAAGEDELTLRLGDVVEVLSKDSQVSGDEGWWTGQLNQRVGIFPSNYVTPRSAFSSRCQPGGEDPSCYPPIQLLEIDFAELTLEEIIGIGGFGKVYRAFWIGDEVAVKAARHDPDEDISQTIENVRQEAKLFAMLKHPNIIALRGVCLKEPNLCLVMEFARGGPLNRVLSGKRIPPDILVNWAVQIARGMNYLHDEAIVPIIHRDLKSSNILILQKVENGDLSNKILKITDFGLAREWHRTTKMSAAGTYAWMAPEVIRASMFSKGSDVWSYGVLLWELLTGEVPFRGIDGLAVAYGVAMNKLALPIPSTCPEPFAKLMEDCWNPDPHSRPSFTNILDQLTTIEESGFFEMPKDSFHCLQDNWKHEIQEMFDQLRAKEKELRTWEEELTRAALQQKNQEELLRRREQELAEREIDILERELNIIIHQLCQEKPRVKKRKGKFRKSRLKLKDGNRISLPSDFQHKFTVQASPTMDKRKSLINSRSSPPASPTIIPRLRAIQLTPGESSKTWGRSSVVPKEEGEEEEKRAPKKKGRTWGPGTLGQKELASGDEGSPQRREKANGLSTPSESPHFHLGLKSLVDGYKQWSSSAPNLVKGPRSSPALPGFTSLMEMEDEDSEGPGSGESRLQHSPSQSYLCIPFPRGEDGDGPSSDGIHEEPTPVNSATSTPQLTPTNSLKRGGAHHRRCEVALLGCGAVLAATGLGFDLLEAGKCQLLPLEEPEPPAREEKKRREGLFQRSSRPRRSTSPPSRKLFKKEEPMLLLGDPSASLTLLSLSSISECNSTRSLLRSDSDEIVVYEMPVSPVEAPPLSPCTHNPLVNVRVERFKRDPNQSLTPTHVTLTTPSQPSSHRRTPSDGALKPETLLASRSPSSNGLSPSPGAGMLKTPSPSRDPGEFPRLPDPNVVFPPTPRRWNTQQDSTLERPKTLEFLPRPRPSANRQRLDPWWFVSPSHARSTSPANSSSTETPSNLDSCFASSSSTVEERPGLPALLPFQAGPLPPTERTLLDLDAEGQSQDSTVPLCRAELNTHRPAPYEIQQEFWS

[18] = target: MAP kinase-interacting serine/threonine-protein kinase 2 (Homo sapiens) (UniProt Q9HBH9); assay: Inhibition of human partial length wild type Mnk2 (G63/S388) expressed in mammalian system at 1 uM by KINOMEscan analysis relative to control
MAP kinase-interacting serine/threonine-protein kinase 2 (Homo sapiens), sequence (Q9HBH9 whole entry, looked up): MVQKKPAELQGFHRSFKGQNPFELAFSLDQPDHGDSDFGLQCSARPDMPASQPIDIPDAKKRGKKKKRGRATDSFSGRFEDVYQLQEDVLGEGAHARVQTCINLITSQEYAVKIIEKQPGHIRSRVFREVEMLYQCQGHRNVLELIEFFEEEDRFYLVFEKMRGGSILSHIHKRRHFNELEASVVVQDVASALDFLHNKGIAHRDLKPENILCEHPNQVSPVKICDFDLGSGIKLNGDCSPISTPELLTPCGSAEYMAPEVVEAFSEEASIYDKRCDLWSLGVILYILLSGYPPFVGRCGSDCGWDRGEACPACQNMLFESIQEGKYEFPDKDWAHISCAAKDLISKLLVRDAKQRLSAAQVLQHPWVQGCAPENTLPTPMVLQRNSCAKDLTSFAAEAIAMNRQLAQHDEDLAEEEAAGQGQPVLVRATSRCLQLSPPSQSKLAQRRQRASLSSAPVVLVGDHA

[19] = target: Serine/threonine-protein kinase 4 (Homo sapiens) (UniProt Q13043); assay: Inhibition of human full length wild type MST1 expressed in mammalian system at 1 uM by KINOMEscan analysis relative to control
[20] = target: Serine/threonine-protein kinase Nek2 (Homo sapiens) (UniProt P51955); assay: Inhibition of human partial length wild type NEK2 expressed in bacterial system at 1 uM by KINOMEscan analysis relative to control
[21] = target: Ribosomal protein S6 kinase beta-1 (Homo sapiens) (UniProt P23443); assay: Inhibition of human partial length wild type p70S6K (M1/S421) expressed in mammalian system at 1 uM by KINOMEscan analysis relative to control
[22] = target: cAMP-dependent protein kinase catalytic subunit alpha (Homo sapiens) (UniProt P17612); assay: Inhibition of human recombinant PKA expressed in Escherichia coli at 1 uM by KINOMEscan analysis relative to control
Homo sapiens [23] = species: Homo sapiens; assay: Inhibition of PIK3 (unknown origin) at 1 uM relative to control
Homo sapiens [24] = species: Homo sapiens; assay: Inhibition of human partial length wild type PRAK (M1/R415) expressed in mammalian system at 1 uM by KINOMEscan analysis relative to control
[25] = target: Ribosomal protein S6 kinase alpha-1 (Homo sapiens) (UniProt Q15418); assay: Inhibition of human partial length wild type Rsk1 (M1/E388) expressed in bacterial system at 1 uM by KINOMEscan analysis relative to control
Ribosomal protein S6 kinase alpha-1 (Homo sapiens), sequence (Q15418 whole entry): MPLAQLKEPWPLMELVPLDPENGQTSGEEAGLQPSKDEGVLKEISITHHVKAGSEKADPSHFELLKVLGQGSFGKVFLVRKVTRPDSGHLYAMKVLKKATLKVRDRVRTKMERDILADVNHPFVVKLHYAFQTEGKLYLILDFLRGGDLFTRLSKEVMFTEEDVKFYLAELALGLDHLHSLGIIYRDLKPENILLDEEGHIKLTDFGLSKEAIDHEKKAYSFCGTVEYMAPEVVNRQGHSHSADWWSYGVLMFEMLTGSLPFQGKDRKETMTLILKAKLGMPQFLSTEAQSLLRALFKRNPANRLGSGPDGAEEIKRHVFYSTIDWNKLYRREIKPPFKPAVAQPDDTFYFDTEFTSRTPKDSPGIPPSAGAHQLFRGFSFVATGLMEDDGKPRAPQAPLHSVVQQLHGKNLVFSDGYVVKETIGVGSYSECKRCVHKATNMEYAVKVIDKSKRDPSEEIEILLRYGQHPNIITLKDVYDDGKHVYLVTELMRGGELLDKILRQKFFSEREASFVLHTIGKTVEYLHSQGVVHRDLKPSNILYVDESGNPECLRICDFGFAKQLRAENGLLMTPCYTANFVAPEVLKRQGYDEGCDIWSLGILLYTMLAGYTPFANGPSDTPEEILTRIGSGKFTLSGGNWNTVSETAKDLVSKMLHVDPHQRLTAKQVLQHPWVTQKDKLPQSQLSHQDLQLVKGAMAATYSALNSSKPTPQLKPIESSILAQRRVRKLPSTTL

[26] = target: PI3K p110 beta/p85 alpha (Homo sapiens) (UniProt P27986+P42338); assay: Inhibition of P13 kinase p110beta/p85alpha (unknown origin) at 1 uM relative to control; type: protein-complex assay
PI3K p110 beta/p85 alpha (Homo sapiens), sequence (P27986 2-724 limits assumed): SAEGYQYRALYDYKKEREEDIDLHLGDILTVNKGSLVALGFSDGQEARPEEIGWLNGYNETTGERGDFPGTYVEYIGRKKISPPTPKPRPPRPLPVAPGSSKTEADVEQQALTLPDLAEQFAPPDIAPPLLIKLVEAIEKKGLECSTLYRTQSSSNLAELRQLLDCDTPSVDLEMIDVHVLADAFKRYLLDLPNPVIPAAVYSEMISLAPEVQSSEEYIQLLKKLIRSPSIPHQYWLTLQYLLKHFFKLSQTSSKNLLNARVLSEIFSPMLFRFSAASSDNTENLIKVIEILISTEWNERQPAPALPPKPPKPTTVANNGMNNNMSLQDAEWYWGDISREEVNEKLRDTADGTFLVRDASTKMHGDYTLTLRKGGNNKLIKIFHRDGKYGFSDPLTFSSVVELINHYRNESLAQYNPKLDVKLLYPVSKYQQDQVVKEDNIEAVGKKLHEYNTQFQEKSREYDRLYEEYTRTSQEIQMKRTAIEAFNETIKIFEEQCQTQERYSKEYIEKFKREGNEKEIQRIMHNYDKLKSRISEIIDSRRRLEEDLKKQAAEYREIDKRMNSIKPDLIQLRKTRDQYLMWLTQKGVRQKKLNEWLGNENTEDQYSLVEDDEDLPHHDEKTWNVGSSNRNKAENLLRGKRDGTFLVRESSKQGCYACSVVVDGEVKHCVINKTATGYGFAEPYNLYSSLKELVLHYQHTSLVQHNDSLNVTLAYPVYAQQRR
PI3K p110 beta/p85 alpha (Homo sapiens), sequence (P42338 whole entry partner): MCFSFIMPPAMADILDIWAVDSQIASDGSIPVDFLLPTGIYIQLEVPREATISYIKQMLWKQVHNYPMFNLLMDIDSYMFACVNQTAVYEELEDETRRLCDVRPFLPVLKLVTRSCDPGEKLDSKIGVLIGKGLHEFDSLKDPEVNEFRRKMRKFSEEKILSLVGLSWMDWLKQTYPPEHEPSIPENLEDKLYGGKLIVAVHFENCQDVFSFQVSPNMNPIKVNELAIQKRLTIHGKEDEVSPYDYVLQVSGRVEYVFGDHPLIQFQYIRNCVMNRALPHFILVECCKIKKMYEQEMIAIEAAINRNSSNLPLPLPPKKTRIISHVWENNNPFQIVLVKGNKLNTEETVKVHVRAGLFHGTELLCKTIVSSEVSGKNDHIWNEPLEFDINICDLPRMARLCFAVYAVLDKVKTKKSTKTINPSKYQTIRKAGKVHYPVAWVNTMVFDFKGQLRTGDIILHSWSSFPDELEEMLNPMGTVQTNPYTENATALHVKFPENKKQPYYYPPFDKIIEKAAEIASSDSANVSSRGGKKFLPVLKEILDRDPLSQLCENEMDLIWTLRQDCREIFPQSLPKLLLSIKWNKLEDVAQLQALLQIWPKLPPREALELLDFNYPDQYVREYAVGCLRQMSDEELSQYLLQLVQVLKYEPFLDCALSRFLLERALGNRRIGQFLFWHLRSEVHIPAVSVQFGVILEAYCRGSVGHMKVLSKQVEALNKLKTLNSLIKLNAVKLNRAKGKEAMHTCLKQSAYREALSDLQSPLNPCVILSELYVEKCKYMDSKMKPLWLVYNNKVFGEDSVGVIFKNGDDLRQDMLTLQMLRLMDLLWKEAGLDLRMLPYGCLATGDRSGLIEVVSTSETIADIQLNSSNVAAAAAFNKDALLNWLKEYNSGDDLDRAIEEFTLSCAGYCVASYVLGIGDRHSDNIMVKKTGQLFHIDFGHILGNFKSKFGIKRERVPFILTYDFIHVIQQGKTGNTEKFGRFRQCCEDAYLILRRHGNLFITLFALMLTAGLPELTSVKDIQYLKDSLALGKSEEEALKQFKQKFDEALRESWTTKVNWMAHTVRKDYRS

[27] = Half life in ICR mouse at 5 mg/kg, iv single dose measured upto 24 hrs; type: ADME, organism-based; conditions: in vivo
[28] = Plasma protein binding in mouse measured after 4 hrs by LC-MS/MS analysis; type: ADME, cell-free; conditions: read-out: PPB
[29] = Cmax in ICR mouse at 5 mg/kg, sc single dose measured upto 24 hrs; type: ADME, organism-based; design: time < 24 hrs, dose 5 mg/kg, route sc; conditions: in vivo
MDCK = assay: Inhibition of cyst formation in in-vitro MDCK cyst model assessed as decrease in cyst diameter at 1 to 3 uM measured for 4 to […]; type: functional, cell-based; conditions: Canis lupus familiaris, dose 1-3 µM, time lower 4.0 hrs
Mus musculus [30] = assay: Reduction in cyst size in kidney-specific Pkd1 knockout ADPKD mouse model assessed as renal cystic index at 5 mg/kg by HE staining analysis; type: functional, organism-based
[31] = Toxicity in wild type mouse assessed as kidney size at 5 mg/kg; type: organism-based; conditions: in vivo
Mus musculus [32] = assay: Reduction in AMPD3 protein expression in kidney-specific Pkd1 knockout ADPKD mouse model assessed as protein expression in kidney at 5 mg/kg by Western blot analysis; type: functional, organism-based

## C=CC(=O)Nc1ccc(C(=O)Nc2n[nH]c3ccc(-c4cncc(NC[C@@H](O)c5ccccc5)c4)cc23)cc1
[1]
  IC50: 4 nM
[2]
  IC50: 823 nM
[3]
  IC50: 1840 nM
[4]
  inhibition: 76%
[5]
  inhibition: 62%
[6]
  inhibition: 63%
[7]
  inhibition: < 50%
[8]
  inhibition: < 50%
[9]
  inhibition: < 50%
[10]
  inhibition: < 50%
[11]
  inhibition: < 50%
[12]
  inhibition: < 50%
[13]
  inhibition: < 50%
[14]
  inhibition: < 50%
[15]
  inhibition: < 50%
[16]
  inhibition: < 50%
[17]
  inhibition: < 50%
[18]
  inhibition: < 50%
[19]
  inhibition: < 50%
[20]
  inhibition: < 50%
[21]
  inhibition: < 50%
[22]
  inhibition: < 50%
Homo sapiens [23]
  inhibition: < 50%
Homo sapiens [24]
  inhibition: < 50%
[25]
  inhibition: < 50%
[26]
  inhibition: < 50%
[27]
  half-life: 18 h
[28]
  fraction unbound at 4 h: < 0.01
[29]
  Cmax: 3810 ng/mL
MDCK
  inhibition: Dose-Dependent Effect
Mus musculus [30]
  Activity: Active
[31]
  Activity: Non-Toxic
Mus musculus [32]
  inhibition: Active
